Measured values from patent US8618068B2, “Methods and low dose regimens for treating red blood cell disorders” (priority 2009, dated 2013).
“Also recorded” adds a separate entry of the source.

Legend:
F-reticulocytes = assay: F-reticulocyte production in anemic baboons; format: in vivo
Procedure: Expression of γ-globin and erythroid cell production was evaluated in a primate model in which baboons are phlebotomized on a daily basis to simulate the chronic RBC destruction associated with hemoglobinopathies. In this model, baboons, aged 2 to 3 years, had 2.5 to 7 mL/kg of blood withdrawn daily, and the volume replaced with an identical volume of normal saline. Hemoglobin levels were lowered relative to control levels, but were maintained between 6.5 to 7.5 g/dL, the level necessary for the modulation of globin genes in this animal species. The animals were supplemented with iron dextran and folic acid. The phlebotomy regimen effectively exchanged the animals' total blood volume every 10 to 20 days.
Globin chain protein synthesis was measured in DMB treated animals using ^3H-leucine-labeled reticulocytes before and 2 and 4 days after treatment. Complete blood counts and reticulocyte counts were monitored 3 times per week and plasma concentrations of the test article was determined. DMB was administered intravenously (IV, daily) or orally via nasogastric gavage under light anesthesia (on 3 alternating days per week for up to 6 weeks), on a dose-escalation schedule with starting doses of 500 to 800 mg/kg. If γ globin induction was observed, lower doses (40-200 mg/kg) were tested. Recombinant human erythropoietin (rhu-EPO) was also administered in separate treatment courses to 2 baboons at doses of 300 U/kg three times per week subcutaneously as a positive control for the erythropoietic effects of DMB. Treatments were performed in individual baboons.
In the anemic baboon model, increases in F-reticulocytes were usually observed within 2-3 days of treatment initiation and diminished within 3 to 5 days of treatment cessation.

in vivo [1] = format: in vivo
From the text: Completed toxicology studies conducted with DMB include a single-dose toxicity study in Sprague-Dawley rats, escalating dose toxicity study in Beagle dogs, a repeat dose study of 14-Day duration in Sprague-Dawley rats and repeat-dose toxicity studies of 28-Day duration in Sprague-Dawley rats and Beagle dogs, and 26-Week studies in Sprague-Dawley rats and Beagle dogs. […] Reproductive toxicity studies include two dose-range finding studies, one in Sprague-Dawley rats, the other in New Zealand white rabbits. DMB was administered once a day (QD) orally via gavage; doses are expressed as the sodium salt. In addition, an array of genotoxicity studies were conducted with DMB.
There were no abnormal macroscopic or microscopic observations associated with the elevated kidney or brain weights. These treatment-related findings were not considered adverse. The NOAEL for DMB administered to Sprague-Dawley rats for a minimum of 181 days was considered to be 500 mg/kg/day, whereas the NOEL for female Sprague-Dawley rats was 100 mg/kg/day.

in vivo [2] = assay: in vivo; design: species or system Beagle dogs; details: Beagle, dog; for AUC(0-inf): both sexes, po
Procedure: DMB was administered orally by capsule to Beagle dogs for 26 weeks at dose levels of 0, 50, 150 and 300 mg/kg/day. Plasma levels were measured at 1 to 24 hours post-dose on Days 1 and 181. Peak plasma concentrations were measured at 1 to 4 hour postdose on Day 0, and at 1 to 8 hours postdose during Week 26. Systemic exposure increased with increasing dose level and was greater than dose-proportional on Day 0 and Week 26. […] The peak and extent of systemic exposure of Beagle dogs to DMB were similar in males and females. Systemic exposure values at Week 26 were 138 to 153% of the values at Day 0 for 50 mg/kg, 130% for 150 mg/kg, and 100 to 102% 300 mg/kg dose levels, indicating an accumulation of DMB during this time period for the 50 and 150 mg/kg dose levels and no accumulation at the 300 mg/kg dose level.
Toxicokinetic information from the 26-week rat (Table 7) and 26-week dog toxicity studies (Table 8) are compared to systemic exposure (AUC) levels determined in a clinical study.

[3] = Phase 1 single dose clinical study, safety; format: in vivo, human
Procedure: The first clinical study was a phase 1, double-blind, placebo-controlled, single dose study of the tolerability, safety and pharmacokinetics of DMB in 32 healthy volunteers. Healthy, fasting adult volunteers received single oral doses of DMB or placebo capsules at one of four dose levels (2 mg/kg, 5 mg/kg, 10 mg/kg and 20 mg/kg). Six subjects received study drug (24 subjects total) and 2 subjects received placebo at each dose level. The 8 placebo subjects received a capsule containing only the excipients from the capsules containing the active agent. Subjects at the 20 mg/kg also received a second dose of study drug after a defined meal, one week following the fasting dose.
Physical examinations, vital signs and neurologic examinations were normal throughout the study. No signs or symptoms of clinical significance were observed. One subject developed transient mild hypotension after dosing, which was clinically asymptomatic, and the Principal Investigator considered this finding to be of no clinical significance. Postural changes in blood pressure and pulse were not evaluated. There were 3 electrocardiogram abnormalities among patients treated with active study medication and 3 among the placebo subjects, all of which were considered to be of no clinical significance. All laboratory studies, including chemistries, coagulation studies, hematology studies and urinalyses were either normal or of no clinical significance except for one subject in whom a urinary tract infection was diagnosed but not disclosed prior to study test article administration. The data are reported for each cohort including the N of subjects that received placebo or study drug. All events were assessed as mild by the Principal Investigator. The reported AEs are shown by Cohort following Table 10. The only AEs considered possibly or probably related to study medication included upper abdominal pain, which occurred in one subject in the 2 mg/kg treatment group, one subject with dizziness in the placebo treatment group, and one subject with dysphoria in the 10 mg/kg treatment group. No subjects discontinued treatment due to AEs and there were no SAEs reported in this study.

[4] = Half-life of DMB (summary statement); details: in vivo

## CCC(C)(C)C(=O)[O-].[Na+] [DMB, Sodium 2,2-dimethylbutyrate]
F-reticulocytes; 150 mg/kg/day, IV, 5 days
  F-reticulocytes Mean Fold Increase: 5
F-reticulocytes; 200 mg/kg/day, IV, 5 days/wk
  F-reticulocytes Mean Fold Increase: 15
F-reticulocytes; 500 mg/kg/2nd day, Oral, 5 days/wk, 2 wks
  F-reticulocytes Mean Fold Increase: 3.8
F-reticulocytes; 500-700 mg/kg/2nd day, Oral
  F-reticulocytes Mean Fold Increase: 3.8
In vivo [1]; both sexes, rat, in vivo, minimum of 181 days, oral
  NOAEL at 181 days: 500 mg/kg/day
In vivo [1]; daily oral, 26 weeks
  mortalities or clinical observations: no test article-associated mortalities or clinical observations
In vivo [1]; female, Sprague-Dawley, rat, in vivo, 181 days
  NOEL: 100 mg/kg/day
In vivo [1]; rat, in vivo
  adverse effects: no adverse effects
In vivo [1]; rat, in vivo, 500 mg/kg/day
  mean absolute and relative liver weights: associated increases
In vivo [2]; 50 mg/kg
  AUC(0-inf): 127 µg·h/mL
In vivo [2]; 150 mg/kg
  AUC(0-inf): 473 µg·h/mL
In vivo [2]; 300 mg/kg
  AUC(0-inf): 1470 µg·h/mL
In vivo [2]; female
  increase in exposure values for a 6-fold increase in dose (50 to 300 mg/kg/day): 10.31 fold
In vivo [2]; female, 26 weeks
  increase in exposure values for a 6-fold increase in dose (50 to 300 mg/kg/day): 7.58 fold
In vivo [2]; male
  increase in exposure values for a 6-fold increase in dose (50 to 300 mg/kg/day): 12.85 fold
In vivo [2]; male, 26 weeks
  increase in exposure values for a 6-fold increase in dose (50 to 300 mg/kg/day): 8.35 fold
[3]; DMB N = 24
  Subject incidence of Abdominal pain, upper: 4%
  Subject incidence of Abdominal tenderness: 4%
  Subject incidence of Cough: 4%
  Subject incidence of Diarrhea: 8%
  Subject incidence of Dizziness: 13%
  Subject incidence of Dysguesia: 4%
  Subject incidence of Dysphoria: 4%
  Subject incidence of Ecchymosis: 4%
  Subject incidence of Epistaxis: 4%
  Subject incidence of Fatigue: 4%
  Subject incidence of Headache: 29%
  Subject incidence of Insomnia: 4%
  Subject incidence of Myalgia: 4%
  Subject incidence of Nausea: 8%
  Subject incidence of Odynophagia: 4%
  Subject incidence of Palpitations: 4%
  Subject incidence of Syncope vasovagal: 4%
  Subject incidence of URI: 8%
  Subject incidence of Vessel puncture site hematoma: 17%
[3]; considered of no clinical significance
  electrocardiogram abnormalities among patients treated with active study medication: 3
[3]; single doses 2 to 20 mg/kg
  SAEs reported: no SAEs
  clinically significant adverse events: no clinically significant adverse events; also recorded: no significant AEs
[4]
  half-life: 9 to 11 h
